Experimental data: patent publication US6310040A, “Treating retinal neuronal disorders by the application of insulin-like growth factors and analogs” (Cephalon, Inc., priority 1992, dated 2001)
Read-outs that look alike come from different tables or passages of the source. Non-standard residues stand in square brackets, D forms with d. No end group written: not given here. Tyr(3,5-I2) = N[C@@H](Cc1cc(I)c(O)c(I)c1)C(=O)O

Key:
photoreceptor cells = type: cell-based, rat
Protocol: To quantitate this assay, we developed a cell-based Rho42 ELISA test as follows: Several postnatal rat retinal cultures containing different numbers of cells, were incubated for 2-4 days following which cultures were fixed and immunolabelled with either the Rho42 monoclonal antibody, or the nonspecific monoclonal antibody P3, secreted by the myeloma cell line P3X6Ag8. Antibody binding was detected using a secondary antibody labelled with horseradish peroxidase and a chromogenic substrate O-phenylenediamine (OPD), having a maximum absorption wavelength of 490 nm. The level of absorption of light at 490 nm measured in the cultures is therefore directly related to the amount of primary antibody that originally bound to the cells. In FIG. 8 it can be seen that there is a linear relationship between the level of absorption at 490 nm and the number of cells in each culture.
Next, rat retinal neuronal cultures were incubated in the presence of IGF-I or IGF-II (54-67) for 48 hours following which they were subjected to the cell-based ELISA test as described above. Both IGF-I and IGF-II (54-67) promoted the survival of photoreceptor cells by 20-30% compared with control untreated cultures.

[1] = tested on: postnatal rat retinal neuronal cells; assay: calcein-AM survival assay, dissociated postnatal rat retinal neuronal cultures; type: cell-based; settings: for fluorescence values (total number of cells surviving) versus untreated cultures: peptides 100 uM, postnatal rat retina; for fluorescence values (total number of cells surviving) versus untreated cultures / relative fluorescence units (total number of cells surviving) versus untreated control: 4 days; for relative fluorescence units (total number of cells surviving) versus untreated control: 100 nM, postnatal day 6 rat retina
Protocol: (§1) Retinas were dissected from embryonic chicks, dissociated by enzymatic digestion and cultured in vitro in defined insulin/serum-free medium according to Sato et al. (1979, Proc. Natl. Acad. Sci. USA 76:514-517). The number of cells in culture was measured using the vital stain calcein-AM. All cells are permeable to calcein-AM, but only live cells are capable of converting this compound into a fluorescent derivative detectable by ordinary methods. In the first experiment, calcein-AM (6 μM) was added to different cultures of retinal cells and the relationship between the level of fluorescence and the number of cells was determined.
To determine the concentration of IGF-I required to promote survival of pre- or postnatal retinal neurons in culture, the following experiments were carried out: Retinal neurons were prepared from dissociated retina obtained from 10 day old chick embryos, or from […] postnatal day 6 rats as described above. Cultures were incubated in the presence of increasing concentrations of IGF-I and the number of cells surviving at 48 hours post-treatment was measured in the calcein-AM assay. […] Based upon previously published data, the concentrations of IGF-I that promote neuronal cell survival in our experiments are consistent with the fact that IGF-I is acting through its own receptor (Karey et al., 1988, In Vitro Cell. Dev. Biol. 24:1107-1113; Ballard et al., 1988, Biochem. J. 249:721-726).
To determine whether retinal survival could be enhanced when incubated in the presence of functional derivatives of IGF-I and IGF-II, a linear fragment of IGF-II that is relatively conserved within both IGF-I and IGF-II, was tested in our assay. The fragment contained a sequence of 14 amino acids from IGF-II (amino acids 54-67, wherein the amino terminal amino acid of IGF-II is number 1).
To determine whether IGF-I, IGF-II, and IGF-III can promote the survival of retinal neuronal cells, dissociated cultures of postnatal rat retina were prepared and assayed for the total number of cells present after incubation in the presence or absence of IGFs. Retinas were dissected from postnatal day 6 rats, dissociated by enzymatic digestion and seeded at a density of 6.25×10^4 cells/cm^2 in defined insulin/serum-free media (Bottenstein et al., 1979, PNAS 76:514-517). These cultures are heterogenous, comprised of at least five independent retinal neuronal cell subpopulations, i.e., amacrine, bipolar, horizontal, photoreceptor and ganglion cells. Cultures were incubated in the presence or absence of 100 nM of each of the IGFs. The total number of cells remaining after 4 days was assayed by incubation with the vital stain calcein-AM at 6 uM. This compound is taken up by all cells but can only be converted to a fluorescent derivative by live cells.
To determine whether linear peptide derivatives of IGFs can support the survival of retinal neuronal cells, dissociated cultures of postnatal rat retina were prepared and assayed for the total number of cells present after incubation in the presence or absence of peptides (100 uM). Retinal neuronal cell cultures were prepared as described in Example 11 and the total number of cells surviving analyzed analogously. Peptides were derived from the amino acid regions 7-30 and 55-70 of IGF-I and […] and the region within IGF-II, amino acids 54-67.

retinal neuronal cells = assay: calcein-AM survival assay, dissociated embryonic chick retinal cultures; type: cell-based; settings: 48 hours post-treatment
Protocol: To determine whether IGF-1 acts to promote survival of retinal neuronal cells, dissociated cultures of avian retina were prepared from animals at various developmental ages and the number of cells present in the cultures, following incubation for 48 hours in the presence or absence of IGF-I, was measured.
as §1
In the next experiment, IGF-I was added to half of the cultures at a final concentration of 100 nM, and the number of cells remaining at 48 hours post-treatment was measured using the calcein-AM assay described above. […]

retinal neurons = assay: retinal neurite regeneration, phase contrast microscopy; type: cell-based; settings: 100 nM, 2-4 days following treatment, insulin/serum-free media
Protocol: To determine whether IGF-I affects retinal neurite regeneration, a population of neurons prepared from dissociated retina was cultured in defined insulin/serum-free media in the presence or absence of 100 nM IGF-I. Cultures were examined by phase contrast microscopy at 2-4 days following IGF-I treatment.

[2] = tested on: photoreceptor subpopulation of cells; assay: Rho42 antibody fluorescence staining of postnatal rat retinal neuronal cultures; type: cell-based; settings: 100 nM, 48 hours
Protocol: To determine whether IGF-I or IGF-II (54-67) could specifically promote survival of the photoreceptor subpopulation of cells in rat retinal neuronal cultures, the following experiments were carried out: The monoclonal antibody Rho42, which binds to an antigenic epitope within the extracellular domain of rhodopsin expressed on the surface of rod photoreceptor cells (Molday and MacKenzie, 1983, Biochemistry 22:653), was used in this assay. Postnatal rat retinal neuronal cultures were incubated in the presence or absence of 100 nM of IGF-I for 48 hours. Cells were harvested and reacted with Rho42 to which a fluorescent label had been added. Slides were prepared and the level of fluorescence in the cultures was qualitatively assessed using a fluorescence microscope.

For `CC(C)C[C@H](NC(=O)[C@H](C)N)C(=O)N[C@@H](CC(C)C)C(=O)N[C@@H](CCC(=O)O)C(=O)N[C@H](C(=O)N[C@@H](Cc1ccc(O)cc1)C(=O)N[C@@H](CS)C(=O)N[C@@H](C)C(=O)N[C@H](C(=O)N1CCC[C@H]1C(=O)N[C@@H](C)C(=O)N[C@@H](CCCCN)C(=O)N[C@@H](CO)C(=O)N[C@@H](CCC(=O)O)C(=O)O)[C@@H](C)O)[C@@H](C)O` [IGF-II (54-67), ALLETYCATPAKSE], the “promoted survival of photoreceptor cells compared with control untreated cultures” value (photoreceptor cells; 48 h) was 20-30%.
For CAPAKSE, the “fluorescence values (total number of cells surviving) versus untreated cultures” value [1] was “higher fluorescence values than untreated cultures”.
CATPAKSE was tested, and the “fluorescence values (total number of cells surviving) versus untreated cultures” value [1] was “higher fluorescence values than untreated cultures”.
With EALLETYCATPAKSE the “fluorescence values (total number of cells surviving) versus untreated cultures” value [1] was “higher fluorescence values than untreated cultures”.
“GAELVDALQFVSGDRGFYFNKPTG (GAELVDALQFYSGDRGFYFNKPTG)” was tested, and the “fluorescence values (total number of cells surviving) versus untreated cultures” value [1] was “higher fluorescence values than untreated cultures”.
“IGF-I: Recombinant human insulin-like growth factor I (somatomedin C), 70 amino acids, SEQ ID NO:1” was tested, and the “enhanced survival of cells compared to control, untreated cultures” value (retinal neuronal cells; 100 nM, retinal cultures from embryos at 8, 10, 12 and 14 days of age) was 20-60%, the “survival of prenatal retinal neurons versus concentration” value (retinal neuronal cells; 10 day old chick embryos, increasing concentrations) was “promote survival of retinal neurons in culture in a dose-dependent manner” and the “relative fluorescence units (total number of cells surviving) versus untreated control” value (“relative fluorescence units” below) [1] was “higher than that found for untreated control cultures”. For the same compound, the “survival of postnatal retinal neurons versus concentration” value ([1]; postnatal day 6 rats, increasing concentrations, 48 hours post-treatment) was “promote survival of retinal neurons in culture in a dose-dependent manner”, the “cells with neurites (axonal regeneration)” value (retinal neurons) was “more cells with neurites than untreated control cultures” and the “level of Rho42 fluorescence (photoreceptor survival), qualitative” value [2] was “increased level of fluorescence compared to untreated cultures”. The “promoted survival of photoreceptor cells compared with control untreated cultures” value (photoreceptor cells; 48 hours, rat retinal neuronal cultures) was 20-30%.
For “IGF-II: Recombinant human insulin-like growth factor II, 67 amino acids, SEQ ID NO:16”, the “relative fluorescence units” value [1] was “higher than that found for untreated control cultures”.
“IGF-III: truncated form of IGF-I lacking the three N-terminal amino acid residues, SEQ ID NO:2” was tested, and the “relative fluorescence units” value [1] was “higher than that found for untreated control cultures”.
“TY(I2)CAPAKSE (T[Tyr(3,5-I2)]CAPAKSE) [iodinated TYCAPAKSE]” was tested, and the “fluorescence values (total number of cells surviving) versus untreated cultures” value [1] was “higher fluorescence values than untreated cultures”.
TYCAPA was tested, and the “fluorescence values (total number of cells surviving) versus untreated cultures” value [1] was “higher fluorescence values than untreated cultures”.
For YCAPA, the “fluorescence values (total number of cells surviving) versus untreated cultures” value [1] was “higher fluorescence values than untreated cultures”.
